Measured values published in patent publication US9238821B2, “Metabolic engineering for plant disease resistance” (The Samuel Roberts Noble Foundation, Inc., priority 2009, dated 2016).
“And” between values parts separate entries of the source, which are not always exact repeats. Identical values can stand only once. “Also recorded” adds a separate entry of the source.

System: P. omnivora
Experiment: Fungal inhibition assay against P. omnivora on PDA medium
Assay type: cell-based, Phymatotrichopsis omnivora
Details: for Fungal growth score (arbitrary scale 0 to 5): 120 h, 0 = no fungal growth (best inhibition), 5 = best fungal growth (no inhibition), two replicate columns; for in vitro growth inhibitory activity against P. omnivora (in words): PDA medium, 0.1 mM and 0.5 mM

Compound	Fungal growth score (arbitrary scale 0 to 5) (compound 0.1 mM in PDA medium)	Fungal growth score (arbitrary scale 0 to 5) (compound 0.5 mM in PDA medium)	in vitro growth inhibitory activity against P. omnivora (in words)	in vitro growth inhibitory activity against P. omnivora (in words) (listed as 7, 4′-dihydroxyflavone)
medicarpin	2 and 1	1 and 0	strong inhibition; also recorded: inhibited; also recorded: substantial in vitro growth inhibitory activity; also recorded: inhibit growth	
O=c1cc(-c2ccc(O)cc2)oc2cc(O)c(O)cc12 [6,7,4′-trihydoxyflavone]			not active	
O=C1C[C@@H](c2ccc(O)cc2)Oc2cc(O)cc(O)c21 [naringenin]	4 and 5	3 and 5	no inhibition activity	
O=c1cc(-c2ccc(O)cc2)oc2cc(O)ccc12 [7,4′-dihydroxyflavone]	3	0	strongly inhibited; also recorded: inhibited; also recorded: substantial in vitro growth inhibitory activity; also recorded: inhibit growth	substantial in vitro growth inhibitory activity
Oc1ccccc1O [catechol, reference compound]	2	0		
O=c1cc(-c2ccc(O)cc2)oc2cc(O)cc(O)c12 [apigenin]	5	5	not in vitro active	
COc1ccc(-c2coc3cc(O)ccc3c2=O)cc1 [formononetin, reference compound]	4	4	not active	
O=C1C[C@@H](c2ccc(O)cc2)Oc2cc(O)ccc21 [liquiritigenin]	5	5	no inhibition activity	
O=C(/C=C/c1ccc(O)cc1)c1ccc(O)cc1O [isoliquiritigenin]	4	4		
